Like-named read-outs stand apart in the source and are kept apart here.
Tests used:
[1] = test system: L. donovani intracellular amastigotes in THP1 cells; type: cell-based, Leishmania donovani
THP1 cells = experiment: Cytotoxicity against THP1 cell cultures; type: cell-based, human; settings: THP1 cells; for IC50: read-out: THP1 cells (Cytotoxicity) IC50; for IC90: read-out: THP1 cells (Cytotoxicity) IC90
[2] = Cytotoxicity against THP1 cell cultures; type: cell-based, human; settings: human, THP1 cell cultures
[3] = test system: L. donovani axenic amastigotes; experiment: In vitro antileishmanial assay against L. donovani axenic amastigotes; type: cell-based; settings: Leishmania donovani, 72 h; for IC50: read-out: L. donavani Amastigotes IC50; for IC90: read-out: L. donavani Amastigotes IC90
[4] = test system: L. donovani promastigotes; experiment: In vitro antileishmanial assay against L. donovani promastigotes; type: cell-based; settings: Leishmania donovani, 72 h; for IC50: read-out: L. donavani Promastigotes IC50; for IC90: read-out: L. donavani Promastigotes IC90
[5] = test system: L. donovani amastigotes in mouse macrophages; settings: cited from earlier work
[6] = read-out: L. donavani Amastigotes + THP1 IC50, intracellular amastigotes in differentiated THP1 macrophages
[7] = read-out: L. donavani Amastigotes + THP1 IC90, intracellular amastigotes in differentiated THP1 macrophages

Row | SMILES | IC50 [1, 6] | IC90 [1, 7] | IC50 (THP1 cells) | IC90 (THP1 cells) | further results
1 | CN1CCCN2CCN(CCCN(Cc3ccccc3)CC2)CC1 [Bn1Me1Bcyclam (L2)] | > 20 µM | > 20 µM | > 20 µM | > 20 µM | 
2 | c1ccc(CN2CCCNCCN(Cc3ccccc3)CCCNCC2)cc1 [Bn2Cyclam (L10), 1,8-dibenzylcyclam] | 12.9 µM | 13.2 µM | > 25 µM | > 25 µM | 
3 | N=C(N)c1ccc(OCCCCCOc2ccc(C(=N)N)cc2)cc1 [Pentamidine] |  |  |  |  | IC50 [2]: > 20 µM; IC90 [2]: > 25 µM; IC50 [3]: 20.4 µM; IC90 [3]: > 25 µM; IC50 [4]: 2.93 µM; IC90 [4]: 6.52 µM
4 | c1ccc(CNCCCNCCCCCCCNCCCNCc2ccccc2)cc1 [MDL27695] |  |  |  |  | elimination of L. donovani amastigotes from mouse macrophages ([5]; at a 1 μM concentration): 77–100%
5 | Cl.Cl.Cl.N=C(N)c1cccc(/C=N/N=C(\N)N/N=C/c2cccc(C(=N)N)c2)c1 [CGP40215A] |  |  |  |  | concentration inhibiting growth of L. donovani amastigotes in mouse macrophages ([5]; mouse macrophages): up to 90 μM
6 | C[C@@H]1[C@H](O)[C@@H](C)/C=C/C=C/C=C/C=C/C=C/C=C/C=C/[C@H](O[C@@H]2O[C@H](C)[C@@H](O)[C@H](N)[C@@H]2O)C[C@@H]2O[C@](O)(C[C@@H](O)C[C@@H](O)[C@H](O)CC[C@@H](O)C[C@@H](O)CC(=O)O[C@H]1C)C[C@H](O)[C@H]2C(=O)O [Amphotericine B] |  |  |  |  | IC50 ([1]; Leishmania donovani, THP-1, read-out: L. donavani Amastigotes + THP1 IC50): 0.48 µM; IC90 ([1]; Leishmania donovani, THP-1, read-out: L. donavani Amastigotes + THP1 IC90): 1.94 µM; IC50 [2]: > 10 µM; IC90 [2]: > 10 µM; IC50 [3]: 0.79 µM; IC90 [3]: 0.959 µM; IC50 [4]: 0.134 µM; IC90 [4]: 0.262 µM
7 | c1ccc(CN2CCN3CCCN(CC2)CCN(Cc2ccccc2)CC3)cc1 [Bn2PBCyclen (L4)] | 18.2 µM | > 25 µM | > 25 µM | > 25 µM | 
8 | c1ccc(CN2CCN3CCN(CC2)CCN(Cc2ccccc2)CC3)cc1 [Bn2Bcyclen (L3)] | > 25 µM | > 25 µM | > 25 µM | > 25 µM | 

From publication PMC6452907 (Polyhedron, 2019)
